Like-named read-outs stand apart in the source and are kept apart here.
Experiments:
[1] = test system: Swiss 3T3 fibroblast cells; assay: Percentage of UV protection in Swiss 3T3 fibroblast cells (NRU staining); format: cell-based, mouse; conditions: UV B 5 minutes
Description: The unexposed region of the plate was covered by aluminum foil. […] The percentage of UV protection was calculated with respect to unexposed cells.

[2] = test system: Swiss 3T3 fibroblast cells
Description: Swiss 3T3 Mouse fibroblast cells and HaCAT Human keratinocytes were obtained from ATCC and cultured in DMEM medium supplemented with 10% FBS. The confluent cultures are harvested by trypsinization and expanded during two more passages before they were used for the experiments. Medium and other culture components were renewed after 48-72 h. All cell cultures were maintained in a humidified atmosphere at 37° C. in 95% air and 5% CO2.
UV lamp of 14.7 W, 0.3 A, 55V with an intensity of 33.3 μW/cm^2 from Sankyo Denki Co., Ltd.
The neutral red (NR) uptake assay: The NR cytotoxicity assay procedure is a cell survival/viability chemosensitivity assay, based on the ability of viable cells to incorporate and bind neutral red, a supravital dye. NR is a weak cationic dye that readily penetrates cell membranes by non-ionic diffusion, accumulating intracellularly in lysosomes, where it binds with anionic sites in the lysosomal matrix. Alterations of the cell surface or the sensitive lysosomal membrane lead to lysosomal fragility and other changes that gradually become irreversible. Such changes brought about by UV exposure result in a decreased uptake and binding of NR. It is thus possible to distinguish between viable, damaged, or dead cells, which are the basis of this assay. The dye taken up by the cells is subsequently extracted and measured. The dye was dissolved in distilled water at a concentration of 0.5 mg/100 μl. 80 μl of this stock solution was dissolved in 15 ml of pre warmed DMEM medium. The developer solution consists of 25 ml of water, 24.5 ml of ethanol and 0.5 ml of glacial acetic acid. The NRU dye and the developer solutions are to be made fresh before use. After UV exposure and consequent incubation for 72 hrs, the culture medium is replaced with NRU dye and incubated for 3 hrs at 37° C., after which the dye is washed off thrice with PBS. The dye is dissolved in 100 μl of developer solution and incubated at RT for 20 min. The OD was determined at 492 nm using a microplate reader.
Swiss 3T3 fibroblasts were plated in a 96 well micropipette at a seeding density of 3000 cells per well. […] After exposure, the cells were incubated in a CO2 incubator for 48 hrs and developed by the NRU staining technique to analyze the cell viability. The SPF of 1.25% OMC was determined with respect to the untreated cells.

SMILES: CCCCC(CC)COC(=O)C=Cc1ccc(OC)cc1 (stereo not shown) [OMC, Octyl methoxy cinnamate]
- % UV protection ([1]; 0.15% OMC in culture medium, vs unexposed cells): 56%
- % UV protection ([1]; 0.31% OMC in culture medium): 71%
- % UV protection ([1]; 0.62% OMC in culture medium): 77%
- % UV protection ([1]; 1.25% OMC in culture medium): 90%
- minimal cytotoxic dose (MCDp) for protected cells ([2]; 1.25% OMC): 0.144 J/cm^2
- % UV toxicity ([2]; 1.25% OMC, UV dosage 0.0072 J/cm^2): 0%
- % UV toxicity ([2]; 1.25% OMC, UV dosage 0.0216 J/cm^2): 0%
- % UV toxicity ([2]; 1.25% OMC, UV dosage 0.036 J/cm^2): 0%
- % UV toxicity ([2]; 1.25% OMC, UV dosage 0.0504 J/cm^2): 0%
- % UV toxicity ([2]; 1.25% OMC, UV dosage 0.072 J/cm^2): 0%
- % UV toxicity ([2]; 1.25% OMC, UV dosage 0.216 J/cm^2): 39.62%
- minimal cytotoxic dose (MCDp) for protected cells ([2]; 7% OMC): 0.54 J/cm^2
- SPF (MCDp/MCDu) ([2]; 7% OMC, MCDu 0.0216 J/cm^2): 25
- % UV toxicity ([2]; 7% OMC, UV dosage 0.0072 J/cm^2): 0%
- % UV toxicity ([2]; 7% OMC, UV dosage 0.0216 J/cm^2): 0%
- % UV toxicity ([2]; 7% OMC, UV dosage 0.036 J/cm^2): 0%
- % UV toxicity ([2]; 7% OMC, UV dosage 0.0504 J/cm^2): 0%
- % UV toxicity ([2]; 7% OMC, UV dosage 0.072 J/cm^2): 0%
- % UV toxicity ([2]; 7% OMC, UV dosage 0.18 J/cm^2): 0%
- % UV toxicity ([2]; 7% OMC, UV dosage 0.432 J/cm^2): 0%
- % UV toxicity ([2]; 7% OMC, UV dosage 0.54 J/cm^2): 7%
- % UV toxicity ([2]; 7% OMC, UV dosage 0.648 J/cm^2): 9%
